Results published in PubChem BioAssay (NCI).
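Compound exposure: 48 hours, 5 concentrations, 96-well plates. Abbreviation: GI50, concentration required for 50% inhibition of growth. TGI denotes the concentration required for complete inhibition of growth.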

How the values were obtained:
Experiment in all cases: inhibition of tumour cell growth, NCI panel, 48 h
HS 578T breast = test system: HS 578T breast
OVCAR-8 ovarian = test system: OVCAR-8 ovarian
ACHN renal = test system: ACHN renal
SK-MEL-28 melanoma = test system: SK-MEL-28 melanoma
SNB-75 CNS = test system: SNB-75 CNS
SF-539 CNS = test system: SF-539 CNS
SN12C renal = test system: SN12C renal
EKVX NSCLC = test system: EKVX NSCLC
HOP-62 NSCLC = test system: HOP-62 NSCLC
SK-MEL-2 melanoma = test system: SK-MEL-2 melanoma

SMILES | GI50 (HS 578T breast) [µM] | TGI (HS 578T breast) [µM] | GI50 (OVCAR-8 ovarian) [µM] | TGI (OVCAR-8 ovarian) [µM] | GI50 (ACHN renal) [µM] | TGI (ACHN renal) [µM] | GI50 (SK-MEL-28 melanoma) [µM] | TGI (SK-MEL-28 melanoma) [µM] | GI50 (SNB-75 CNS) [µM] | TGI (SNB-75 CNS) [µM] | GI50 (SF-539 CNS) [µM] | TGI (SF-539 CNS) [µM] | GI50 (SN12C renal) [µM] | TGI (SN12C renal) [µM] | GI50 (EKVX NSCLC) [µM] | TGI (EKVX NSCLC) [µM] | GI50 (HOP-62 NSCLC) [µM] | TGI (HOP-62 NSCLC) [µM] | GI50 (SK-MEL-2 melanoma) [µM] | TGI (SK-MEL-2 melanoma) [µM]
CC(C)n1nc(C#Cc2cccc(NC(=O)c3cccc(C(F)(F)F)c3)c2)c2c(N)ncnc21 | 0.216 | 1.88 | 3.15 | > 100 | 1.01 | 5.72 | 0.368 | 6.82 | 1.75 | 3.89 | 0.445 | 2.33 | 1.28 | 8.17 | 3.46 | > 100 | 1.11 | 6.71 | 0.308 | 1.96
CC1SC2(CCCCC2)N(NC(=O)c2[nH]c3ccc(F)cc3c2-c2ccccc2)C1=O (stereo not given) | 66.8 | > 100 | 23.1 | 63.5 | > 100 | > 100 | > 100 | > 100 | 27.2 | 62 | > 100 | > 100 | 37.1 | > 100 | > 100 | > 100 | 19.7 | 60.9 | 76.2 | > 100
N#CC1(C#N)C2C=CC(C3CCC=C32)C1(C#N)C#N (stereo not given) | – | > 10 | – | > 10 | – | > 10 | – | > 10 | – | > 10 | – | > 10 | – | > 10 | – | > 10 | – | > 10 | – | > 10
COC(=O)Nc1nc2ccc(Sc3ccc(NC(=O)Nc4cc(C(F)(F)F)ccc4F)cc3)cc2[nH]1 | 1.35 | 7.24 | 4.23 | 11.6 | 3.58 | 10.2 | 2.81 | 16.5 | 3.32 | 10.9 | 3.23 | 7.98 | 3.82 | 11 | 4 | 21.8 | 3.73 | 9.56 | 3.15 | 10.6
CC(=O)Nc1ccc(-n2cnc3cc(-c4ccc(OCCN5CCCCC5)cc4)ccc32)cc1 | 4.15 | 10.8 | 6.07 | 14.8 | 3.61 | 11.4 | 4.45 | 9.06 | 4.11 | 8.31 | 1.64 | 6.47 | 4.48 | 9.72 | 7.88 | 28 | 5.08 | 11.6 | 5.81 | 11.5
Cc1cc2c(cc1Cl)SC1=NN(C)C(c3ccccc3O)N1S2(=O)=O (stereo not given) | > 100 | > 100 | 68 | > 100 | > 100 | > 100 | 86.2 | > 100 | > 100 | > 100 | 32.1 | > 100 | 58.7 | > 100 | 81.7 | > 100 | 88.5 | > 100 | > 100 | > 100
COc1ncnc2c(-c3ccco3)cn(COCc3ccccc3)c12 | 18.6 | > 50 | > 50 | > 50 | > 50 | > 50 | > 50 | > 50 | 12.7 | > 50 | > 50 | > 50 | > 50 | > 50 | 11.5 | > 50 | > 50 | > 50 | 48.8 | > 50
COc1cc(/C=C\c2cccnc2Nc2ccccc2)cc(OC)c1OC | 13.2 | > 100 | 6.7 | > 100 | 5.33 | 78.1 | 5.43 | 41 | 4.12 | 57.5 | 12.2 | > 100 | 5.1 | > 100 | 7.55 | > 100 | 12.1 | > 100 | 8 | 28.8
C#Cc1cccc(Nc2ncnc3ccc(-c4cncc(NS(C)(=O)=O)c4)cc23)c1 | 1.1 | 4.65 | 3.7 | 28.1 | 0.979 | 49.6 | 1.47 | 14.1 | 0.524 | 5.09 | 1.46 | 4.96 | 2.51 | 19.7 | 1.12 | 4.6 | 1.84 | 14.1 | 0.845 | 2.2
CCN(CC)CCOc1ccc(C2=C(c3ccccc3)CCc3cc(OC)ccc32)cc1 | 3.72 | 10.9 | 3.15 | 10.5 | 4.2 | 15.4 | 1.62 | 3.19 | 1.4 | 4.62 | 1.52 | 2.89 | 5.48 | 20 | 3.44 | 14 | 3.08 | 9.6 | 2.15 | 4.67
O=C(Cc1nc2ccc([N+](=O)[O-])cc2[nH]c1=O)C(=O)Nc1cc(Cl)c(Cl)cc1Cl | – | > 100 | – | > 100 | – | > 100 | – | > 100 | – | > 100 | – | > 100 | – | > 100 | – | > 100 | – | > 100 | – | > 100
